Consider 7 compounds from US11161989B2, “Near-infrared absorbing composition, optical structure, and camera module and electronic device comprising the same” (priority 2018, dated 2021).

A short description of data set [1]: Solubility of the copper complex in an organic solvent. In kind it is physicochemical. Conditions: organic solvent THF. How it is done: In Table 1, the “solubility” is evaluated as °, when greater than or equal to 50 wt % of a copper complex based on 100 wt % of an entire composition is dissolved in a corresponding organic solvent, and as X, when less than 50 wt % of a copper complex based on 100 wt % of an entire composition is dissolved in a corresponding organic solvent, and “ANIR” is measured under a THF concentration condition of 10 mg/m L.
In Table 2, “solubility” uses the same reference as Table 1.

Data set [2] is described as follows: Wavelength vs. absorbance of near-infrared absorbing compositions (UV-Vis spectrophotometer). The settings on record: for A430-565 (average absorbance in a visible light wavelength region) / λNIR (maximum absorption wavelength): 10 mg/mL in THF; for ANIR (maximum absorbance): THF concentration condition of 10 mg/mL; for Absorption area of near-infrared wavelength region: curve integrated from 700 nm to 1100 nm; for Absorption area of near-infrared wavelength region / Cut-off wavelength: composition in THF; for Cut-off wavelength: wavelength of 50% light transmittance after normalizing maximum absorbance to 1. The class given is physicochemical.
Text: In Table 3, the “absorption area of a near-infrared wavelength region” is an area obtained by integrating each curve in a wavelength range from 700 nm to 1100 nm in FIG. 7, and the “cut-off wavelength” is a wavelength where each curve has light transmittance of 50% after normalizing absorbance corresponding to a y-axis of FIG. 7 to have a maximum absorbance of 1 and then, converting the normalized absorbance (An) into light transmittance (T) to satisfy Equation 1. T (%)=10^(2-An).

`C=C(C)C(=O)OCCOP(=O)(O)[O][Cu][O]C(=O)C(F)(F)F` [Example 5]: the Solubility result in data set [1] is listed as “∘”. Besides, in data set [2], the “A430-565 (average absorbance in a visible light wavelength region)” value was 0.010, the “λNIR (maximum absorption wavelength)” value was 814 nm and the “ANIR (maximum absorbance)” value amounted to 0.66.

As for `C=C(C)C(=O)OCCOP(=O)(O)[O][Cu][O]P(=O)(O)OCCOC(=O)C(=C)C` [Comparative Example 2, reference compound], the Solubility result in data set [1] is listed as “∘”. Besides, in data set [2], the “A430-565 (average absorbance in a visible light wavelength region)” value worked out at 0.001, the “λNIR (maximum absorption wavelength)” value was 826 nm, the “ANIR (maximum absorbance)” value is reported as 0.42 and the “Absorption area of near-infrared wavelength region” value (“Absorption area” below) is reported as 144. Further, the Cut-off wavelength in data set [2] was 740 nm.

On to `CC(C)OP(=O)(O)[O][Cu][O]C(=O)C(F)(F)F` [Example 3], for which the Solubility result in data set [1] was “∘”. Besides, in data set [2], the “A430-565 (average absorbance in a visible light wavelength region)” value is listed as 0.008, the “λNIR (maximum absorption wavelength)” value turned out to be 794 nm and the “ANIR (maximum absorbance)” value stood at 1.04.

As to `O=C([O][Cu][O]P(=O)(Oc1ccccc1)Oc1ccccc1)C(F)(F)F` [Example 4], the Solubility entry in data set [1] is “∘”. In data set [2], the “A430-565 (average absorbance in a visible light wavelength region)” value is listed as 0.005, the “λNIR (maximum absorption wavelength)” value was found to be 814 nm and the “ANIR (maximum absorbance)” value worked out at 0.85.

On to `O=C([O][Cu][O]C(=O)C(F)(F)F)C(F)(F)F` [Comparative Example 1, reference compound], for which the Solubility result in data set [1] was “∘”. In addition, in data set [2], the “A430-565 (average absorbance in a visible light wavelength region)” value is reported as 0.020, the “λNIR (maximum absorption wavelength)” value was 771 nm, the “ANIR (maximum absorbance)” value was determined as 1.05 and the “Absorption area” value is 328. For the same compound, the Cut-off wavelength in data set [2] came to 636 nm.

Regarding `CCOP(=O)(O)[O][Cu][O]C(=O)C(F)(F)F` [Example 2], the Solubility result in data set [1] is recorded as “∘”. In addition, in data set [2], the “A430-565 (average absorbance in a visible light wavelength region)” value turned out to be 0.013, the “λNIR (maximum absorption wavelength)” value turned out to be 794 nm and the “ANIR (maximum absorbance)” value was found to be 1.16.

Consider `Cc1ccc(S(=O)(=O)[O][Cu][O]C(=O)C(F)(F)F)cc1` [Example 6], for which the Solubility result in data set [1] is “∘”. Moreover, in data set [2], the “A430-565 (average absorbance in a visible light wavelength region)” value is 0.006, the “λNIR (maximum absorption wavelength)” value is recorded as 825 nm, the “ANIR (maximum absorbance)” value is 0.70 and the “Absorption area” value amounted to 234. This compound returned a Cut-off wavelength in data set [2] of 676 nm.
